In general, IC50 refers to the concentration that gives 50% inhibition.

Each structure is given as a SMILES string.

In the assay the target is T1, PI3Kβ (recombinant truncated form (ΔN1-108) of the human p110β subunit of PI3K) (Homo sapiens, UniProt P42338).
T1 construct: His6 (N); made in house; host or cells: Spodoptera frugiperda Sf9 insect cells
Put plainly: Solid-phase lipid kinase assay of PI3Kβ. The format is biochemical. The following applies: 7.5 ng protein/well, final 10 μM ATP, 2 h at rt. Here is the method: To assess inhibition of PI3Kα by compounds, the Maxisorp™ plates were coated with 50 μL/well of a solution containing 50 μg/ml PtdIns and 50 μg/ml PtdSer dissolved in chloroform:ethanol (3:7). The plates were subsequently air-dried by incubation for at least 2 h in a fume hood. The reaction was set up by mixing 25 μL/well of assay buffer 2×(100 mM MOPSO/NaOH, 0.2 M NaCl, pH 7.0, 8 mM MgCl2, 2 mg/mL BSA (fatty acid-free)), and 7.5 ng/well PI3Kα in the lipid pre-coated plate. Test compounds at different concentrations (0.0, 0.003, 0.01 0.03, 0.1, 0.3, 1.0, 3.0 and 10 μM) were added in 2% DMSO. The reaction was initiated by adding 20 μL/well of ATP mix (final 10 μM ATP; 0.05 μCi/well [γ^33P]ATP). After incubation at rt for 2 h, the reaction was terminated by adding 50 μl/well stop solution (50 mM EDTA, pH 8.0). The plate was then washed twice with Tris-buffered saline (TBS, pH 7.4). MicroScint PS™ (PACKARD) scintillation mix was added at 100 μL/well, and radioactivity was counted using a TopCount™ (PACKARD) scintillation counter.
The inhibition percent at each concentration of compound was calculated, and IC50 values were determined from the inhibition of curve.
A recombinant truncated form (ΔN1-108) of the human p110β subunit of PI3K with an N-terminal His6-Tag was expressed in S. frugiperda 9 insect cells. Recombinant human PI3Kγ (full length human PI3K p110γ fused with a His6-tag at the C-terminus expressed in S. frugiperda 9 insect cells) was obtained from ALEXIS BIOCHEMICALS (#201-055-0010; San Diego, Calif.).
Kinase assays using recombinant truncated p110β or the full length p110γ were performed in a similar manner as described in the determination of IC50 values of compounds in the kinase assay of PI3Kα except that these isoforms were assayed using 7.5 ng and 25.0 ng of protein/well, respectively.

T1 sequence (P42338 109-1070): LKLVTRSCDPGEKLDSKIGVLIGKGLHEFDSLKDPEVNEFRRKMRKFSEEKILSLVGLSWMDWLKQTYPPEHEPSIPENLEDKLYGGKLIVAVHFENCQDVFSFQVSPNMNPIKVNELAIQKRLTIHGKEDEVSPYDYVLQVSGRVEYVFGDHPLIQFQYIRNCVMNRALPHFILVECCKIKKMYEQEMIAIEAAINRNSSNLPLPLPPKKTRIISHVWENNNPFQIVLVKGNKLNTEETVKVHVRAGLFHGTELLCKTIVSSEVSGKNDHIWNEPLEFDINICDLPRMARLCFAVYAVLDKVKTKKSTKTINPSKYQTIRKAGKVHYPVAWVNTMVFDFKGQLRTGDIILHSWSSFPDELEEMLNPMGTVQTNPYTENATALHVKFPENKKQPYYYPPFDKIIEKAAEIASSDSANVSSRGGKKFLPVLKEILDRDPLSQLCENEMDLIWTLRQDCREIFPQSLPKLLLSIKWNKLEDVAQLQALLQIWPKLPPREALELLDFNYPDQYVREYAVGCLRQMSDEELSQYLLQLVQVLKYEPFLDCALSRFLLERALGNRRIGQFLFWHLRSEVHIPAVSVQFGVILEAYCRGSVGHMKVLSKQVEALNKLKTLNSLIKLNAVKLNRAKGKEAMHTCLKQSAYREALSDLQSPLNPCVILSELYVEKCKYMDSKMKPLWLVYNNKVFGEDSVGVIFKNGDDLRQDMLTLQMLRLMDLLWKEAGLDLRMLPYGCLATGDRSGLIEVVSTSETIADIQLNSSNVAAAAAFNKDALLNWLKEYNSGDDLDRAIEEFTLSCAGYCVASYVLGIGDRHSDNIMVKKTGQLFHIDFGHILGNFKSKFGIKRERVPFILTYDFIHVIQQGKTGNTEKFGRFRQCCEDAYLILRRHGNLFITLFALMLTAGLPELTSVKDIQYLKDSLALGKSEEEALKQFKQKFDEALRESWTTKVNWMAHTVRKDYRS

Turning to `Cc1nc(C)c(C(=O)NC2=Nc3cc(OCc4ccc(S(C)(=O)=O)cc4)ccc3C3=NCCN23)s1` [Example 27, 2,4-dimethyl-N-(8-{[4-(methylsulfonyl)benzyl]oxy}-2,3-dihydroimidazo[1,2-c]quinazolin-5-yl)-1,3-thiazole-5-carboxamide], the IC50 lay within 100 to 3000 nM.

As to `COc1c(OCCCS(=O)(=O)N2CCOCC2)ccc2c1N=C(NC(=O)c1cnc(N)nc1)N1CCN=C21` [Example 23, 2-amino-N-{7-methoxy-8-[3-(morpholin-4-ylsulfonyl)propoxy]-2,3-dihydroimidazo[1,2-c]quinazolin-5-yl}pyrimidine-5-carboxamide], the IC50 is below 100 nM.

Turning to `COc1c(OCCCN2CCS(=O)(=O)CC2)ccc2c1N=C(NC(=O)c1cccnc1)N1CCN=C21` [Example 4, N-{8-[3-(1,1-dioxidothiomorpholin-4-yl)propoxy]-7-methoxy-2,3-dihydroimidazo[1,2-c]quinazolin-5-yl}nicotinamide], the IC50 was below 100 nM.

As to `Nc1ncc(C(=O)NC2=Nc3cc(OCCCS(=O)(=O)N4CCOCC4)ccc3C3=NCCN23)cn1` [Example 29, 2-amino-N-{8-[3-(morpholin-4-ylsulfonyl)propoxy]-2,3-dihydroimidazo[1,2-c]quinazolin-5-yl}pyrimidine-5-carboxamide], the half-inhibitory concentration (IC50) was below 100 nM.

For the compound `COc1c(OCCOCCNS(C)(=O)=O)ccc2c1N=C(NC(=O)c1cccnc1)N1CCN=C21` [Example 31, N-[7-methoxy-8-(2-{2-[(methylsulfonyl)amino]ethoxy}ethoxy)-2,3-dihydroimidazo[1,2-c]quinazolin-5-yl]nicotinamide], the half-inhibitory concentration (IC50) is below 100 nM.

Consider `CCN(CC)S(=O)(=O)CCCOc1c(OCCCN2CCOCC2)ccc2c1N=C(NC(=O)c1cccnc1)N1CCN=C21` [Example 14, N-[7-{3-[(Diethylamino)sulfonyl]propoxy}-8-(3-morpholin-4-ylpropoxy)-2,3-dihydroimidazo[1,2-c]quinazolin-5-yl]nicotinamide], for which the IC50 was below 100 nM.

On to `COc1c(OCCCS(=O)(=O)N(C)C)ccc2c1N=C(NC(=O)c1ccc(N)nc1)N1CCN=C21` [Example 18, 6-amino-N-(8-{3-[(dimethylamino)sulfonyl]propoxy}-7-methoxy-2,3-dihydroimidazo[1,2-c]quinazolin-5-yl)nicotinamide], for which the IC50 was below 100 nM.

As to `CS(=O)(=O)c1ccc(COc2c(OCCCN3CCOCC3)ccc3c2N=C(NC(=O)c2cccnc2)N2CCN=C32)cc1` [Example 36, N-[7-{[4-(methylsulfonyl)benzyl]oxy}-8-(3-morpholin-4-ylpropoxy)-2,3-dihydroimidazo[1,2-c]quinazolin-5-yl]nicotinamide], the IC50 was below 100 nM.

With `CN1CCN(S(=O)(=O)CCCOc2cccc3c2N=C(NC(=O)c2cccnc2)N2CCN=C32)CC1` [Example 8, N-(7-{3-[(4-methylpiperazin-1-yl)sulfonyl]propoxy}-2,3-dihydroimidazo[1,2-c]quinazolin-5-yl)nicotinamide], the IC50 lay in the range of 100 to 3000 nM.

In the case of `CN1CCN(S(=O)(=O)CCCOc2c(OCCCN3CCOCC3)ccc3c2N=C(NC(=O)c2cccnc2)N2CCN=C32)CC1` [Example 13, N-[7-{3-[(4-methylpiperazin-1-yl)sulfonyl]propoxy}-8-(3-morpholin-4-ylpropoxy)-2,3-dihydroimidazo[1,2-c]quinazolin-5-yl]nicotinamide], the IC50 is below 100 nM.

In the case of `O=C(NC1=Nc2cc(OCCCS(=O)(=O)N3CCOCC3)ccc2C2=NCCN12)c1cccnc1` [Example 24, N-{8-[3-(morpholin-4-ylsulfonyl)propoxy]-2,3-dihydroimidazo[1,2-c]quinazolin-5-yl}nicotinamide], the half-inhibitory concentration (IC50) is 100 to 3000 nM.

As for `COc1c(OCCOCCNS(=O)(=O)c2ccc(C)cc2)ccc2c1N=C(NC(=O)c1cccnc1)N1CCN=C21` [Example 34, N-{7-methoxy-8-[2-(2-{[(4-methylphenyl)sulfonyl]amino}ethoxy)ethoxy]-2,3-dihydroimidazo[1,2-c]quinazolin-5-yl}nicotinamide], the IC50 was below 100 nM.

Turning to `Nc1ccc(C(=O)NC2=Nc3cc(OCCCS(=O)(=O)N4CCOCC4)ccc3C3=NCCN23)cn1` [Example 30, 6-amino-N-{8-[3-(morpholin-4-ylsulfonyl)propoxy]-2,3-dihydroimidazo[1,2-c]quinazolin-5-yl}nicotinamide], the IC50 was 100 to 3000 nM.

For the compound `CN1CCN(S(=O)(=O)CCCOc2ccc3c(c2)N=C(NC(=O)c2cccnc2)N2CCN=C32)CC1` [Example 25, N-(8-{3-[(4-methylpiperazin-1-yl)sulfonyl]propoxy}-2,3-dihydroimidazo[1,2-c]quinazolin-5-yl)nicotinamide], the half-maximal inhibitory concentration (IC50) fell in the range of 100 to 3000 nM.

In the case of `CN(C)S(=O)(=O)CCCOc1cccc2c1N=C(NC(=O)c1cccnc1)N1CCN=C21` [Example 11, N-(7-{3-[(dimethylamino)sulfonyl]propoxy}-2,3-dihydroimidazo[1,2-c]quinazolin-5-yl)nicotinamide], the half-maximal inhibitory concentration (IC50) was below 100 nM.

As to `CN(C)S(=O)(=O)CCCOc1c(OCCCN2CCOCC2)ccc2c1N=C(NC(=O)c1cccnc1)N1CCN=C21` [Example 15, N-[7-{3-[(dimethylamino)sulfonyl]propoxy}-8-(3-morpholin-4-ylpropoxy)-2,3-dihydroimidazo[1,2-c]quinazolin-5-yl]nicotinamide], the IC50 was below 100 nM.

Take `CCN(CC)S(=O)(=O)CCCOc1ccc2c(c1OC)N=C(NC(=O)c1cccnc1)N1CCN=C21` [Example 6, N-(8-{3-[(diethylamino)sulfonyl]propoxy}-7-methoxy-2,3-dihydroimidazo[1,2-c]quinazolin-5-yl)nicotinamide]: the IC50 is below 100 nM.

For the compound `COc1c(OCCCS(=O)(=O)N2CCOCC2)ccc2c1N=C(NC(=O)c1cccnc1)N1CCN=C21` [Example 3, N-{7-methoxy-8-[3-(morpholin-4-ylsulfonyl)propoxy]-2,3-dihydroimidazo[1,2-c]quinazolin-5-yl}nicotinamide], the IC50 is below 100 nM.

As for `COc1c(OCCCN2CCS(=O)(=O)CC2)ccc2c1N=C(NC(=O)c1ccc(N)nc1)N1CCN=C21` [Example 19, 6-amino-N-{8-[3-(1,1-dioxidothiomorpholin-4-yl)propoxy]-7-methoxy-2,3-dihydroimidazo[1,2-c]quinazolin-5-yl}nicotinamide], the IC50 is below 100 nM.

For `O=C(NC1=Nc2c(OCCCN3CCS(=O)(=O)CC3)cccc2C2=NCCN12)c1cccnc1` [Example 9, N-{7-[3-(1,1-dioxidothiomorpholin-4-yl)propoxy]-2,3 dihydroimidazo[1,2-c]quinazolin-5-yl}nicotinamide], the half-maximal inhibitory concentration (IC50) fell in the range of 100 to 3000 nM.

With `CCCS(=O)(=O)NCCOCCOc1ccc2c(c1OC)N=C(NC(=O)c1cccnc1)N1CCN=C21` [Example 32], the IC50 is below 100 nM.

Consider `COc1c(OCCCS(=O)(=O)N(C)C)ccc2c1N=C(NC(=O)c1cnc(N)nc1)N1CCN=C21` [Example 17, 2-amino-N-(8-{3-[(dimethylamino)sulfonyl]propoxy}-7-methoxy-2,3-dihydroimidazo[1,2-c]quinazolin-5-yl)pyrimidine-5-carboxamide], for which the IC50 was below 100 nM.

Take `CS(=O)(=O)c1ccc(COc2ccc3c(c2)N=C(NC(=O)c2cccnc2)N2CCN=C32)cc1` [Example 26, N-(8-{[4-(methylsulfonyl)benzyl]oxy}-2,3-dihydroimidazo[1,2-c]quinazolin-5-yl)nicotinamide]: the IC50 is 100 to 3000 nM.

As to `O=C(NC1=Nc2c(OCCCS(=O)(=O)N3CCOCC3)cccc2C2=NCCN12)c1cccnc1` [Example 7, N-{7-[3-(morpholin-4-ylsulfonyl)propoxy]-2,3-dihydroimidazo[1,2-c]quinazolin-5-yl}nicotinamide], the half-inhibitory concentration (IC50) was in the range of 100 to 3000 nM.

As to `COc1c(OCc2ccc(S(C)(=O)=O)cc2)ccc2c1N=C(NC(=O)c1cccnc1)N1CCN=C21` [Example 2, N-(7-methoxy-8-{[4-(methylsulfonyl)benzyl]oxy}-2,3-dihydroimidazo[1,2-c]quinazolin-5-yl)nicotinamide], the IC50 was 100 to 3000 nM.

With `COc1c(OCCOCCNS(=O)(=O)c2ccccc2)ccc2c1N=C(NC(=O)c1cccnc1)N1CCN=C21` [Example 33, N-[7-methoxy-8-(2-{2-[(phenylsulfonyl)amino]ethoxy}ethoxy)-2,3-dihydroimidazo[1,2-c]quinazolin-5-yl]nicotinamide], the IC50 was below 100 nM.

Take `COc1c(OCCCS(=O)(=O)N2CCOCC2)ccc2c1N=C(NC(=O)c1ccc(N)nc1)N1CCN=C21` [Example 22, 6-amino-N-{7-methoxy-8-[3-(morpholin-4-ylsulfonyl)propoxy]-2,3-dihydroimidazo[1,2-c]quinazolin-5-yl}nicotinamide]: the IC50 is below 100 nM.

Values taken from patent US8859572B2, “Sulfone substituted 2,3-dihydroimidazo [1,2-C] quinazoline derivatives useful for treating hyper-proliferative disorders and diseases with angiogenesis” (Bayer Intellectual Property GmbH, priority 2008, dated 2014).
